PMC10046946, “Novel Phthalic-Based Anticancer Tyrosine Kinase Inhibitors: Design, Synthesis and Biological Activity” (Current Issues in Molecular Biology, 2023)
Values joined by “and” are separate entries in the source; they are usually repeats but may differ in a detail not shown here. Identical values can stand only once. Like-named read-outs stand apart in the source and are kept apart here. Each block holds one molecule with its values, some of them ahead of it.

Legend:
K562 cells [1] = assay: Cell cycle analysis (propidium iodide, flow cytometry); type: cell-based; details: 48 h
Procedure: Tumor cells were seeded on a 6-well plate at a density of 400,000 per well for K562. Test compounds 5, 14 and 15 were added at concentrations of 1, 5 and 10 μM in duplicate for 48 h. The methodology and analysis of the obtained data were performed as described in our prior work.
As shown above, compounds 5, 14 and 15 had significant antiproliferative activities, which is why their influences on the cell cycle and apoptosis level were determined, with the aim of understanding whether these effects are cytostatic or cytotoxic. In the cell cycle experiments, K562 cells were used. […] For the determination of changes in the distribution of cells in the phases of the cell cycle, the widely employed method of staining the cells with propidium iodide was used.

PDGFRα = target: T1, PDGFRα (Homo sapiens, UniProt P16234); assay: ADP-Glo kinase assay, PDGFRα; type: biochemical
T1 construct: purchased Promega
Procedure: (§1) The ADP-Glo kinase assay (Promega, Madison, WI, USA) was used to screen compounds 5, 8–10, 14, 17, 19 and 24 for the tyrosine kinase (Kinase Selectivity Profiling System TK-1, Promega, Madison, WI, USA) and serine/threonine kinase (Kinase Selectivity Profiling System Other/CK-1, Promega, Madison, WI, USA) inhibition effects according to the manufacturer’s technical manual. The luminescence data were analyzed as described in our prior work.
(§2) The selectivity of the potential kinase inhibitor against a specific protein kinase or a specific family of kinases was investigated using the Kinase Selectivity Profiling System TK-1, Other/CK-1 and ADP-Glo™ Kinase assay kit (Promega, Madison, WI, USA).

HER4 = target: T2, HER4 (Homo sapiens, UniProt Q15303); assay: ADP-Glo kinase assay, HER4; type: biochemical
T2 construct: purchased Promega
Procedure: as §1, §2

[2] = system: HL-60 (promyelocytic leukemia); assay: MTT cell proliferation assay, HL-60; type: cell-based; details: Homo sapiens, HL-60, 72 h of exposition, read-out: Anti-proliferative activity IC50, HL-60
Procedure: (§3) Tests to determine the effects of the synthesized compounds on cell viability and the half-maximal inhibitory concentration (IC50) were performed using the MTT assay, as described in our prior work.
(§4) The target compounds 5, 6, 8–12, 14, 15, 17–22 and 24–26 were tested for antiproliferative activity against six cancer cell lines: K562 (chronic myelogenous leukemia), HL-60 (promyelocytic leukemia), MCF-7 (breast adenocarcinoma), HepG2 (human liver cancer), A549 (lung carcinoma) and OKP-GS (renal cell carcinoma). The RPMI 1788 cells (B lymphocyte, human) were used as a control to evaluate the system toxicity of the studied compounds to normal cells. Sorafenib, nilotinib and lapatinib were utilized as reference standards for comparison.

[3] = system: HepG2 (human liver cancer); assay: MTT cell proliferation assay, HepG2; type: cell-based; details: HepG2, 72 h of exposition, read-out: Anti-proliferative activity IC50, HepG2
Procedure: as §3, §4

EGFR = target: T3, EGFR (Homo sapiens, UniProt P00533); assay: ADP-Glo kinase assay, EGFR; type: biochemical
T3 construct: purchased Promega

K562 cells [4] = assay: Annexin V-FITC/PI apoptosis assay; type: cell-based; details: 48 h
Procedure: K562 tumor cells were plated on a 6-well plate at a density of 400,000 per well. Test compounds 5, 14 and 15 were added at concentrations of 1, 5 and 10 μM in duplicate for 48 h. The methodology and analysis of the obtained data were performed as described in our prior work.
The effects of compounds 5, 14 and 15 on cell apoptosis were examined using the Annexin V-FITC Kit (Beckman Coulter, Brea, CA, USA) according to the protocols provided. The Annexin V-FITC Kit is an apoptosis detection kit based on the binding properties of annexin V to phosphatidylserine (PS) and on the DNA intercalating capability of propidium iodide (PI). K562 cells were treated with compound 5, 14 and 15 at 1, 5 and 10 μM for 48 h, after which annexin V/PI binding was measured by flow cytometry.

KDR (VEGFR-2) = target: T4, KDR (VEGFR-2) (Homo sapiens, UniProt P35968); assay: ADP-Glo kinase assay, KDR; type: biochemical
T4 construct: purchased Promega

[5] = system: MCF-7 (breast adenocarcinoma); assay: MTT cell proliferation assay, MCF-7; type: cell-based; details: Homo sapiens, MCF7, MCF-7, 72 h of exposition, read-out: Anti-proliferative activity IC50, MCF-7
Procedure: as §3, §4

Aurora A = target: T5, Aurora A (Homo sapiens, UniProt O14965); assay: ADP-Glo kinase assay, Aurora A; type: biochemical
T5 construct: purchased Promega
T5 sequence (O14965 1-403): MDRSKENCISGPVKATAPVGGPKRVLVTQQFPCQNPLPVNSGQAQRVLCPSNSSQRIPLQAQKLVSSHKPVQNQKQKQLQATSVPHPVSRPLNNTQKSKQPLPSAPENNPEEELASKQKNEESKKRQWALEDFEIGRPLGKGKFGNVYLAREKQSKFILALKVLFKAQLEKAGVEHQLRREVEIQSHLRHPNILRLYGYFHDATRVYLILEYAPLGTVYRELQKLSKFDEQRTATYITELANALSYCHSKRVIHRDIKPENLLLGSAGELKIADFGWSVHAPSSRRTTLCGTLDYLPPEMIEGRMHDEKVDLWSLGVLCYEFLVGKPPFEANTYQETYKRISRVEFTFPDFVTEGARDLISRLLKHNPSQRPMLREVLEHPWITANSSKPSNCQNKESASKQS
Procedure: as §1, §2

HER2 = target: T6, HER2 (Homo sapiens, UniProt P04626); assay: ADP-Glo kinase assay, HER2; type: biochemical
T6 construct: purchased Promega
Procedure: as §1, §2

[6] = system: OKP-GS (renal cell carcinoma); assay: MTT cell proliferation assay, OKP-GS; type: cell-based; details: 72 h of exposition, read-out: Anti-proliferative activity IC50, OKP-GS
Procedure: as §3, §4

Aurora B = target: T7, Aurora B (Homo sapiens, UniProt Q96GD4); assay: ADP-Glo kinase assay, Aurora B; type: biochemical
T7 construct: purchased Promega
Procedure: as §1, §2

InsR (insulin receptor) = target: T8, InsR (insulin receptor) (Homo sapiens, UniProt P06213); assay: ADP-Glo kinase assay, InsR; type: biochemical
T8 construct: purchased Promega
Procedure: as §1, §2

PDGFRβ = target: T9, PDGFRβ (Homo sapiens, UniProt P09619); assay: ADP-Glo kinase assay, PDGFRβ; type: biochemical
T9 construct: purchased Promega
Procedure: as §1, §2

[7] = system: RPMI 1788 cells (B lymphocyte, human); assay: MTT cell proliferation assay, normal RPMI 1788 cells; type: cell-based; details: normal human lymphoblastoid cells RPMI 1788, 72 h of exposition, read-out: Anti-proliferative activity IC50, RPMI 1788
Procedure: as §3, §4

A549 (lung carcinoma) = assay: MTT cell proliferation assay, A549; type: cell-based; details: Homo sapiens, A549, 72 h of exposition, read-out: Anti-proliferative activity IC50, A549
Procedure: as §3, §4

[8] = system: K562 (chronic myelogenous leukemia); assay: MTT cell proliferation assay, K562; type: cell-based; details: Homo sapiens, K562, 72 h of exposition, read-out: Anti-proliferative activity IC50, K562
Procedure: as §3, §4

[9] = target: T10, IGF1R (insulin-like growth factor 1 receptor) (Homo sapiens, UniProt P08069); assay: ADP-Glo kinase assay, IGF1R; type: biochemical
T10 construct: purchased Promega
Procedure: as §1, §2

K562 cell line = assay: ROS determination (DCFH-DA, flow cytometry); type: cell-based; details: 48 h
Procedure: The redox status was assessed using the K562 cell line. […] Then, the cells were washed to remove the 2′,7′-dichlorodihydrofluorescein diacetate by centrifugation at 1000 rpm for 5 min. The measurements were conducted using a Cytomics FC500 Beckman Coulter flow cytometer (FL1 channel for DCF).

[10] = system: cancer cell lines (K562, HL-60, MCF-7, HepG2, A549, OKP-GS); assay: MTT cell proliferation assay, statements over the whole cell line panel; type: cell-based; details: statement over the cell line panel, studied concentration range up to 50 µM
Procedure: as §3, §4

T3 sequence (P00533 25-1210): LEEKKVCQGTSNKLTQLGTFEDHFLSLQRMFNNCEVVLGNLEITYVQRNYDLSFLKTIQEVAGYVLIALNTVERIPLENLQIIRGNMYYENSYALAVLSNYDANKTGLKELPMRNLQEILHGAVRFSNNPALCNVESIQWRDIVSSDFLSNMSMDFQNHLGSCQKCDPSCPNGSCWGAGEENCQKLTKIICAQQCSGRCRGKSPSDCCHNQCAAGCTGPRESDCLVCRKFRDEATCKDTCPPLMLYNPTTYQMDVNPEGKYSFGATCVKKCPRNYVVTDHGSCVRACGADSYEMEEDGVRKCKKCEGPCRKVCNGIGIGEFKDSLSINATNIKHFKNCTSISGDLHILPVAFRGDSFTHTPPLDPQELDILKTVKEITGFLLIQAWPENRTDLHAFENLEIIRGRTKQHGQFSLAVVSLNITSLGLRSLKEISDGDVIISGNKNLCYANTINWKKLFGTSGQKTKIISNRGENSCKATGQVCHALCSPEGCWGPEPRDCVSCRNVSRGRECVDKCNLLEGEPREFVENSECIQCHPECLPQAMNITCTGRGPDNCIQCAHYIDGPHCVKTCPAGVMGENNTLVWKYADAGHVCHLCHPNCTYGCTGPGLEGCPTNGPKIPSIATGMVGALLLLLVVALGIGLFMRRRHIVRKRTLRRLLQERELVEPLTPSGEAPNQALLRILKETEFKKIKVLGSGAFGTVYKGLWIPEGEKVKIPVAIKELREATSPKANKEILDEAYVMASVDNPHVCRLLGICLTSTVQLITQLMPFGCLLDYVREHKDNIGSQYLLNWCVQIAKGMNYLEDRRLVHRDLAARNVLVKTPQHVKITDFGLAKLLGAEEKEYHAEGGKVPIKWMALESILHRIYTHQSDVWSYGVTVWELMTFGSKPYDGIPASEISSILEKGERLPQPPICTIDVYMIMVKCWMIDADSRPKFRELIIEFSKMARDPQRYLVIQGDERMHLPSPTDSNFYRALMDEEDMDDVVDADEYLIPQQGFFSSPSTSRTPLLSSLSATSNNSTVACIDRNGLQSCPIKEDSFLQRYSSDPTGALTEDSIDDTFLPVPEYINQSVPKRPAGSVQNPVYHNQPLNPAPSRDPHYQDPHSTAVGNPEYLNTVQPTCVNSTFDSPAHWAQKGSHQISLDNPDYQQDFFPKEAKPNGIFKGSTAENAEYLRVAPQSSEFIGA
T9 sequence (P09619 33-1106): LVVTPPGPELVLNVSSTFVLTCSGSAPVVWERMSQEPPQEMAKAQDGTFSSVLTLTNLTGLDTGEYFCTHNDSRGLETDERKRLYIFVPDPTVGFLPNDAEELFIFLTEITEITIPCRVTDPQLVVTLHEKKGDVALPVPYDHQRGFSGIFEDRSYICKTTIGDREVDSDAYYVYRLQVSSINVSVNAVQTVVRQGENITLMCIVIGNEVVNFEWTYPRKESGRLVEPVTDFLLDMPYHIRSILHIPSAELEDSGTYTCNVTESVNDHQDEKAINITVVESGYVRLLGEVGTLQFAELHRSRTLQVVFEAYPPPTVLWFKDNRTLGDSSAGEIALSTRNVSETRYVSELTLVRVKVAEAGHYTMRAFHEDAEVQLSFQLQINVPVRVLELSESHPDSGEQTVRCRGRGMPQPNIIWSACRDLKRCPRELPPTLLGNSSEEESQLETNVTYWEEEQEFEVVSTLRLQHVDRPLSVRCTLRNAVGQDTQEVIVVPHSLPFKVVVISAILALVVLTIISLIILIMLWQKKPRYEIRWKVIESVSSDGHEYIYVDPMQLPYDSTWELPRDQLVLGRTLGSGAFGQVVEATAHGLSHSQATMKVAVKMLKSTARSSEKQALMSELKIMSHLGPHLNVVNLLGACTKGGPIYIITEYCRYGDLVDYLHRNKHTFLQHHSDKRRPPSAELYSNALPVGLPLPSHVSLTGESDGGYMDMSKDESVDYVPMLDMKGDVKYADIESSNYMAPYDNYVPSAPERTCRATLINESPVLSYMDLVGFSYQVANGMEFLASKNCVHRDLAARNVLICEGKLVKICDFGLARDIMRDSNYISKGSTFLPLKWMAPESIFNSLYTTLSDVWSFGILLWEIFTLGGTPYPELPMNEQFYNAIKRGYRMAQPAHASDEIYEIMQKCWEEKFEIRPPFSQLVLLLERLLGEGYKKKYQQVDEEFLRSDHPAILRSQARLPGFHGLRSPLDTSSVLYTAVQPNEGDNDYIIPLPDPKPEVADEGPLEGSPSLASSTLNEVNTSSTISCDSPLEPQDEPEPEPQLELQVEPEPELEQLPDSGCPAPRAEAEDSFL
T1 sequence (P16234 24-1089): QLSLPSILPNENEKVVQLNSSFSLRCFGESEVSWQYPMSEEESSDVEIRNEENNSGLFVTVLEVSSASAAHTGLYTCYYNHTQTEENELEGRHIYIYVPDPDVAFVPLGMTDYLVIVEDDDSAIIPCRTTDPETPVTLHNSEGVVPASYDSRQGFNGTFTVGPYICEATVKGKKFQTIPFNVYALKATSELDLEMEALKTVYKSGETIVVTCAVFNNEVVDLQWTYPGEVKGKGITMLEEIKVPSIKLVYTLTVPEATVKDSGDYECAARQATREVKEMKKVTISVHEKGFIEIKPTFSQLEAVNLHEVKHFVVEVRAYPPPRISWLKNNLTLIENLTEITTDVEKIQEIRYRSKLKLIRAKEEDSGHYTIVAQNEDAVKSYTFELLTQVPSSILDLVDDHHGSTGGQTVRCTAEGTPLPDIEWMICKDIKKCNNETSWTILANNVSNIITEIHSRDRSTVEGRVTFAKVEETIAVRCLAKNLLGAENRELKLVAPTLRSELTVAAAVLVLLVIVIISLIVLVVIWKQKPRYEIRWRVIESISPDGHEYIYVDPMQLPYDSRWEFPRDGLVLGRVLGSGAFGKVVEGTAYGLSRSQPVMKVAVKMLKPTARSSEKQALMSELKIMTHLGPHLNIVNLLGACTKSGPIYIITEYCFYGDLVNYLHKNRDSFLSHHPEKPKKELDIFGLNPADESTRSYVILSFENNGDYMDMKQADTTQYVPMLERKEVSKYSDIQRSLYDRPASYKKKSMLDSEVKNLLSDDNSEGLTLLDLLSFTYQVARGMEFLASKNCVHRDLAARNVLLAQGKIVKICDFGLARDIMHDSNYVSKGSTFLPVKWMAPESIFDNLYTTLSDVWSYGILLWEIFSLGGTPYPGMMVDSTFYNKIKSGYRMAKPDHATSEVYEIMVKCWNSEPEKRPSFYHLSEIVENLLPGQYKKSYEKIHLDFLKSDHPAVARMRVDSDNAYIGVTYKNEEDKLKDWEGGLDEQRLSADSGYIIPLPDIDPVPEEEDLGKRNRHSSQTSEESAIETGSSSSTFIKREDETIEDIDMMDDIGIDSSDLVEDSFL
T10 sequence (P08069 31-1367): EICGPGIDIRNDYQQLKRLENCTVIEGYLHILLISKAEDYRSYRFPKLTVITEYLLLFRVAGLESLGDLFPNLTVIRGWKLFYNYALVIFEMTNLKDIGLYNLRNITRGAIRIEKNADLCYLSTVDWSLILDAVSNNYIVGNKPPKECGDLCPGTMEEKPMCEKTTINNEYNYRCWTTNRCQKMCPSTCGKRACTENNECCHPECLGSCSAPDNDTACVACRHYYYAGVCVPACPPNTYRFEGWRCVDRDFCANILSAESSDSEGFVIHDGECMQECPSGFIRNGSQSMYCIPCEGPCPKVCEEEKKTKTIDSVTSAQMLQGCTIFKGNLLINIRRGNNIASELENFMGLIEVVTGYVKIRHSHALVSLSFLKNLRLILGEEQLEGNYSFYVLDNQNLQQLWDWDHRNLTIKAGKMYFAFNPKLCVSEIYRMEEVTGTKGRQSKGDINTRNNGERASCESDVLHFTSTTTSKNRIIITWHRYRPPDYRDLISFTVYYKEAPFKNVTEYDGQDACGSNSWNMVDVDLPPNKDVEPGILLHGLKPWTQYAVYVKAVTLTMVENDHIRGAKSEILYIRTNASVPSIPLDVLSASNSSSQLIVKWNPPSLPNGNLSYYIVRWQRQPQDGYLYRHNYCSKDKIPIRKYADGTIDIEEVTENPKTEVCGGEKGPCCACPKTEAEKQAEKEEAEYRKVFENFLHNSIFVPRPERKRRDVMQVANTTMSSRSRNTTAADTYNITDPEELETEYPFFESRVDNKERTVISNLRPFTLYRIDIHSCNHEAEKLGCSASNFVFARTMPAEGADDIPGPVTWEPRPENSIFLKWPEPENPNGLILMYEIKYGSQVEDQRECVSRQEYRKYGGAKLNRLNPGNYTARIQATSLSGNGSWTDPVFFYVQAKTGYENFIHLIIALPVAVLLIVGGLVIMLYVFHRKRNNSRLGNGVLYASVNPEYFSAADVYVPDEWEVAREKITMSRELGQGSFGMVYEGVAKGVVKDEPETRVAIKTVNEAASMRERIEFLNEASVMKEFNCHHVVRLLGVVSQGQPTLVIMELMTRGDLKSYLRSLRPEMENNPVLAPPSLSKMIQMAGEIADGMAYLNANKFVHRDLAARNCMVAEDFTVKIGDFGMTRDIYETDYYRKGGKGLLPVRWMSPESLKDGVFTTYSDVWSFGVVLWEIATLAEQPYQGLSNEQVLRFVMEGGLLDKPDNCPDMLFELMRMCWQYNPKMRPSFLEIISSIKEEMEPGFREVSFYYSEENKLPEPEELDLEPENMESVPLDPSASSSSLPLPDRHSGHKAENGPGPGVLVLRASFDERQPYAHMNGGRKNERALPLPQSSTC
T7 sequence (Q96GD4 whole entry): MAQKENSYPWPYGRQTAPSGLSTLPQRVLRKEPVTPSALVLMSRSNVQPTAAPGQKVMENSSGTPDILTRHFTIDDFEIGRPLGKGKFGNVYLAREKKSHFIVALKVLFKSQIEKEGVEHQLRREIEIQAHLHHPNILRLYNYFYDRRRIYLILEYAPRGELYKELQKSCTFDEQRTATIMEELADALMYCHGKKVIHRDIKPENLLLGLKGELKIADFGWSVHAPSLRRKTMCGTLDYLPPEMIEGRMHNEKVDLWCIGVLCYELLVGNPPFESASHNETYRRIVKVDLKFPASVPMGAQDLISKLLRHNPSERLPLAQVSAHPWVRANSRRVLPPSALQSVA

inhibition at 10 µM (PDGFRα): 73%
inhibition at 10 µM (HER4): 0%
IC50 [2]: 7.04 ± 0.29 µM
IC50 [3]: 7.84 ± 2.61 µM
IC50 ([3]; Homo sapiens, HepG2, 72 h): 8.84 µM
inhibition at 10 µM (EGFR): 0%
inhibition at 10 µM (KDR (VEGFR-2)): 18%
IC50 [5]: 4.91 ± 1.27 µM
inhibition at 10 µM (Aurora A): 0%
inhibition at 10 µM (HER2): 33%
IC50 [6]: 17.8 ± 2.13 µM
inhibition at 10 µM (Aurora B): 0%
inhibition at 10 µM (InsR (insulin receptor)): 0%
inhibition at 10 µM (PDGFRβ): 18%
IC50 (A549 (lung carcinoma)): > 50 µM
IC50 [8]: 3.42 ± 0.78 µM
inhibition at 10 µM [9]: 0%
Compound: Cc1cn(-c2cc(NC(=O)c3cccc(C(=O)Nc4cccc(C(F)(F)F)c4)c3)cc(C(F)(F)F)c2)cn1 [Compound 5, N1-(3-(4-methyl-1H-imidazol-1-yl)-5-(trifluoromethyl)phenyl)-N3-(3-(trifluoromethyl)phenyl)isophthalamide]
Apoptosis, % (cell cycle analysis) (K562 cells [1]; K562, 1 µM): 14.56%
G1, % (K562 cells [1]; K562, 1 µM): 37.92%
G2/M, % (K562 cells [1]; K562, 1 µM): 45.08%
S, % (K562 cells [1]; K562, 1 µM): 17.0% and 17.01%
Apoptosis, % (cell cycle analysis) (K562 cells [1]; K562, 5 µM): 37.20%
G1, % (K562 cells [1]; K562, 5 µM): 31.77%
G2/M, % (K562 cells [1]; K562, 5 µM): 50.09%
S, % (K562 cells [1]; K562, 5 µM): 18.14%
Apoptosis, % (cell cycle analysis) (K562 cells [1]; K562, 10 µM): 53.50%
G1, % (K562 cells [1]; K562, 10 µM): 29.86%
G2/M, % (K562 cells [1]; K562, 10 µM): 38.0% and 38.08%
S, % (K562 cells [1]; K562, 10 µM): 32.05%
normal live cells (living cells) (K562 cells [4]; K562, 1 µM): 79.72%
early apoptotic cells (K562 cells [4]; K562, 5 µM): 29.07%
late apoptotic cells (K562 cells [4]; K562, 5 µM): 19.93%
normal live cells (living cells) (K562 cells [4]; K562, 5 µM): 48.87%
necrotic cells (K562 cells [4]; K562, 10 µM): 16.38%
normal live cells (living cells) (K562 cells [4]; K562, 10 µM): 38.66%
IC50 [7]: 2.86 ± 0.09 µM
ROS Level, % of Control (K562 cell line; K562, 5 µM): 76.76 % of Control
ROS Level, % of Control (K562 cell line; K562, 10 µM): 64.66 % of Control
ROS Level, % of Control (K562 cell line; K562, 20 µM, 20 µM): 62.9 % of Control

melting point: 258 to 260 °C
IC50 [2]: > 50 µM
IC50 ([3]; Homo sapiens, HepG2, 72 h): > 50 µM
IC50 [5]: 41.1 ± 5.06 µM
IC50 [6]: > 50 µM
IC50 (A549 (lung carcinoma)): > 50 µM
IC50 [8]: > 50 µM
Compound: CNC(=O)c1cc(Oc2ccc(NC(=O)c3cccc(C(=O)Nc4cccc(C(F)(F)F)c4)c3)cc2)ccn1 [Compound 6, N1-(4-((2-(methylcarbamoyl)pyridin-4-yl)oxy)phenyl)-N3-(3-(trifluoromethyl)phenyl)isophthalamide]
Antiproliferative activity (IC50) over the studied cell cultures [10]: lack of sensitivity of the cancer cells in the studied concentration range
IC50 [7]: 13 ± 2.99 µM
